# Measurements: article PMC12282105 (RSC Advances, 2025)
# Molecular target: SARS-CoV-2 main protease (M^pro or 3CL^pro) (Severe acute respiratory syndrome coronavirus 2, UniProt P0DTD1)
# Assay: Fluorogenic substrate assay of SARS-CoV-2 main protease
# Type: biochemical
# Conditions: compound 9 relative to compound 8
structure (smiles),measurement,value
"O=c1cc(-c2ccc(O)cc2)oc2cc(O[C@@H]3O[C@H](CO)[C@@H](O)[C@H](O)[C@H]3O)cc(O)c12 [Compound 9, apigenin-7-O-β-D-glucopyranoside]",improvement in protease inhibitory activity,15 fold
